Measurements reported in PubChem BioAssay AID2060497 (Molecular Pharmacology Branch, DTP, NCI, 2025).

System: 317291-083-R-J1-PDC complex spheroids, viability
Assay: Anticancer human tumor 317291-083-R-J1-PDC patient-derived soft tissue sarcoma cell line growth inhibition [GQUAD]
Conditions: for IC50: curve of first compound; for viability, T/C: stronger effect = lower value; active = viability on the fitted dose curve at most 10% of control; inactive = the rest
Outline: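 Multi-cell-type spheroids of tumor cells with HUVEC and mesenchymal stem cells, treated with drug combinations. Concentrations descend in half-log steps from near clinical Cmax, or from 10 microM where Cmax is unknown; viability read-out.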

[1] = second compound 0.0316 µM, first compound 0.0316 µM
[2] = second compound 0.0316 µM, first compound 0.1 µM
[3] = second compound 0.0316 µM, first compound 0.316 µM
[4] = second compound 0.0316 µM, first compound 1 µM
[5] = second compound 0.0316 µM, first compound 3.16 µM
[6] = second compound 0.0316 µM, first compound 10 µM
[7] = second compound 0.1 µM, first compound 0.0316 µM
[8] = second compound 0.1 µM, first compound 0.1 µM
[9] = second compound 0.1 µM, first compound 0.316 µM
[10] = second compound 0.1 µM, first compound 1 µM
[11] = second compound 0.1 µM, first compound 3.16 µM
[12] = second compound 0.1 µM, first compound 10 µM
[13] = second compound 0.316 µM, first compound 0.0316 µM
[14] = second compound 0.316 µM, first compound 0.1 µM
[15] = second compound 0.316 µM, first compound 0.316 µM
[16] = second compound 0.316 µM, first compound 1 µM
[17] = second compound 0.316 µM, first compound 3.16 µM
[18] = second compound 0.316 µM, first compound 10 µM
[19] = second compound 1 µM, first compound 0.0316 µM
[20] = second compound 1 µM, first compound 0.1 µM
[21] = second compound 1 µM, first compound 0.316 µM
[22] = second compound 1 µM, first compound 1 µM
[23] = second compound 1 µM, first compound 3.16 µM
[24] = second compound 1 µM, first compound 10 µM
[25] = second compound 3.16 µM, first compound 0.0316 µM
[26] = second compound 3.16 µM, first compound 0.1 µM
[27] = second compound 3.16 µM, first compound 0.316 µM
[28] = second compound 3.16 µM, first compound 1 µM
[29] = second compound 3.16 µM, first compound 3.16 µM
[30] = second compound 3.16 µM, first compound 10 µM
[31] = second compound 10 µM, first compound 0.0316 µM
[32] = second compound 10 µM, first compound 0.1 µM
[33] = second compound 10 µM, first compound 0.316 µM
[34] = second compound 10 µM, first compound 1 µM
[35] = second compound 10 µM, first compound 3.16 µM
[36] = second compound 10 µM, first compound 10 µM
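Note: spheroids exposed to compounds for one week before readout.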
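Throughout, for viability, T/C: percent viability relative to DMSO vehicle wells taken as 100%.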

COc1ncnc(C2CC2)c1-c1ncc2cnn(Cc3ccc(-c4nc(C(F)(F)F)cn4C(C)C)cc3)c2n1 + Cc1cnc(CNC(=O)c2c(=O)c3ccc(N4CCCN(C)CC4)nc3n3c2sc2ccccc23)cn1
> 10000 nM: IC50 (second compound 0.0316 µM)
active: viability, T/C [31] 0.63% | viability, T/C [32] 0.19% | viability, T/C [33] 0.22% | viability, T/C [34] 0.19% | viability, T/C [35] 0.26% | viability, T/C [36] 0.24%
373 nM: IC50 (second compound 0.316 µM)
< 31.6 nM: IC50 (second compound 1 µM) | IC50 (second compound 3.16 µM) | IC50 (second compound 10 µM)
inactive: viability, T/C [1] 78.3% | viability, T/C [2] 76.8% | viability, T/C [3] 71.6% | viability, T/C [4] 72.2% | viability, T/C [5] 67% | viability, T/C [6] 54.1% | viability, T/C [7] 59.5% | viability, T/C [8] 51.1% | viability, T/C [9] 47.3% | viability, T/C [10] 39.3% | viability, T/C [11] 56.1% | viability, T/C [12] 53% | viability, T/C [13] 46.6% | viability, T/C [14] 48.1% | viability, T/C [15] 63.6% | viability, T/C [16] 31.2% | viability, T/C [17] 37.4% | viability, T/C [18] 32% | viability, T/C [19] 31.3% | viability, T/C [20] 36.8% | viability, T/C [21] 44.1% | viability, T/C [22] 30.5% | viability, T/C [23] 32.3% | viability, T/C [24] 25.8% | viability, T/C [25] 20.5% | viability, T/C [26] 13.6% | viability, T/C [27] 30% | viability, T/C [28] 15.5% | viability, T/C [29] 16.2% | viability, T/C [30] 21.2%
138 nM: IC50 (second compound 0.1 µM)

COc1cccc2c1C(=O)c1c(O)c3c(c(O)c1C2=O)CC(O)(C(=O)CO)CC3OC1CC(N)C(O)C(C)O1 (centres undefined) + CN(C)c1ccc(Nc2c3ccc(NC(=O)CCN4CCCC4)cc3nc3cc(NC(=O)CCN4CCCC4)ccc23)cc1
65.3 nM: IC50 (second compound 0.1 µM)
71.7 nM: IC50 (second compound 0.0316 µM)
active: viability, T/C [4] 13.2% | viability, T/C [5] 0.97% | viability, T/C [6] 0.41% | viability, T/C [11] 1.05% | viability, T/C [12] 0.35% | viability, T/C [16] 8.77% | viability, T/C [17] 1.59% | viability, T/C [18] 0.73% | viability, T/C [22] 3.06% | viability, T/C [23] 0.9% | viability, T/C [24] 0.65% | viability, T/C [27] 12.1% | viability, T/C [28] 4.09% | viability, T/C [29] 0.51% | viability, T/C [30] 0.86% | viability, T/C [32] 7.93% | viability, T/C [33] 3.54% | viability, T/C [34] 1.41% | viability, T/C [35] 1.22% | viability, T/C [36] 0.51%
57.4 nM: IC50 (second compound 0.316 µM)
inactive: viability, T/C [1] 82.7% | viability, T/C [2] 32.4% | viability, T/C [3] 21.1% | viability, T/C [7] 64.1% | viability, T/C [8] 41.8% | viability, T/C [9] 22.2% | viability, T/C [10] 12.1% | viability, T/C [13] 64.2% | viability, T/C [14] 35.1% | viability, T/C [15] 23.6% | viability, T/C [19] 29.1% | viability, T/C [20] 18.6% | viability, T/C [21] 14.9% | viability, T/C [25] 28.8% | viability, T/C [26] 15.1% | viability, T/C [31] 9.63%
< 31.6 nM: IC50 (second compound 1 µM) | IC50 (second compound 3.16 µM) | IC50 (second compound 10 µM)
